Experiments:
SCCVII tumor = assay: Anti-cancer assay: SCCVII tumor volume in C3H mice; format: in vivo; conditions: male C3H mice with subcutaneous SCCVII tumors; 1.15 mg/mL in 5% DMSO/water, intraperitoneal, q.o.d. on Days 0, 2 and 4 (3 doses)
Procedure: Mice with SCC VII tumors were treated with Compound 1, which has the following chemical structure.
The Treatment Composition was Compound 1 in a water/DMSO carrier. The Treatment Composition was prepared by dissolving 2.3 mg of Compound 1 in 0.1 mL of DMSO and mixing the resultant solution with 1.9 mL of water to provide a solution containing 1.15 mg/mL of Compound 1. The concentration of dimethylsulfoxide (DMSO) in the Treatment Composition was 5%.
Male C3H mice were obtained from Charles River Laboratories and maintained under specific pathogen-free conditions. Mice were housed five animals per cage and autoclaved food and water was provided ad libitum. Cages were located in rooms having a temperature of 65±2 degrees Fahrenheit, a humidity of 50%±5%, and a 12-hour day-and-night light cycle. Mice were 7-8 weeks old, with a body weight in the range of 22-25 grams, at the time inoculated with tumor cells.
Mice were inoculated subcutaneously with 5×10^5 SCCVII tumor cells in 0.05 mL Hank's solution on the back. […] The length and width of the tumors were measured with calipers immediately before treatment and three times a week thereafter until the tumor volume reached at least four times (4×) the original pre-treatment volume. Tumor volume (mm^3) was calculated according to the formula: Tumor Volume=π/6×length×width^2 Part II: Results

[1] = Toxicity evaluation in healthy rats; format: in vivo; conditions: for Clinical observations: femoral vein infusion
Procedure: Compound 1 was administered to healthy rats and the rats were evaluated for evidence of toxic side effects due to Compound 1. Experimental procedures and results are described below.
Two groups of 3 male rats each were given a 100 or 300 mg/kg dose of Compound 1 prepared in 0.9% saline solution. A third group of 3 rats were given saline alone. Doses were delivered via a femoral vein. The 100 mg/kg dose was delivered using a 10 mg/mL solution at a dose volume of 10 mL/kg and an infusion rate of 15 mL/hr. The 300 mg/kg dose was delivered using a 20 mg/mL solution at a dose volume of 15 mL/kg and an infusion rate of 15 mL/hr.

## N[C@@H](CSCC(=O)N1CC([N+](=O)[O-])([N+](=O)[O-])C1)C(=O)O [Compound 1]
SCCVII tumor
  Tumor volume versus untreated control: smaller than tumors in mice that did not receive the Treatment Composition
[1]; healthy male rats, 100 or 300 mg/kg in 0.9% saline via femoral vein, observed for 24 hours
  Toxicity (overall conclusion): no significant toxicity was observed
[1]; rats, 100 mg/kg dose, observed for 24 hours
  Clinical observations: No notable clinical observations
[1]; rats, 300 mg/kg dose, observed for 24 hours
  Clinical observations: pale during the first 3 hours post dose
[1]; rats, 100 or 300 mg/kg, necropsy after 24 hours
  Gross changes in the lungs at necropsy: no gross changes in the lungs
[1]; rats, 100 or 300 mg/kg, necropsy after 24 hours, significance undetermined
  Kidney observation at necropsy: Mottled kidneys were observed in most rats
